The subject of the assay is cut flower of a carnation (variety "Rosybabara"). Nature of the assay: Withering of carnation cut flower after storage, Example 10. The assay is classed as in vivo. As to conditions: 1 ppm, after storage 20 degrees C 14 days, average score of 5 plants (0=healthy). Here is the method:
Using a cut flower (5 ornamental plants were used per group) of a carnation (variety “Rosybabara”) as an agricultural product, the following experiment was performed. […]
2) An ornamental plant was placed into a sealed chamber, and a pressure in the chamber was reduced to 12.5 kPa. Subsequently, 1-methylcyclopropene was placed therein to the concentration in the chamber of 1 ppm, and contact-treated for 1 minute under the reduced pressure (12.5 kPa).
3) An ornamental plant was placed in a sealed chamber. Subsequently, a pressure in the chamber was reduced to 12.5 kPa and the ornamental plant was kept in the chamber under the reduced pressure for 1 minute.
An ornamental plant which had been subjected to treatment of the above-mentioned 1), 2) or 3) was stored at 20 degrees C for 14days, and an extent of withering of an ornamental plant was assessed by naked eyes. Assessment criteria were 4 stages; 0=healthy, 1=slight withering, 2=intermediate withering, […], and an average of assessment in 5 ornamental plants was calculated. Note that the treatment above-mentioned 1), 2) or 3) was performed on a day of harvesting an ornamental plant. In addition, also regarding an ornamental plant undergoing no treatment of 1), 2) or 3) (non-treatment), the similar storage was performed, and the above-mentioned index was measured.

The results in this text go back to patent US20040192554A1, “Technique for effectively treating an agricultural product with a 1-substituted-cyclopropene” (priority 2003, published 2004).

`CC1=CC1` [1-MCP, 1-methylcyclopropene]: the Extent of withering is on record as 0.8 (Normal pressure 1 hour), 0.4 (Normal pressure 24 hours) and 0.4 (Reduced pressure (12.5 kPa) 1 minute).
